Data published in patent US11760984B2, “CRISPR protein inhibitors” (THE BROAD INSTITUTE, INC., priority 2017, dated 2023).

Experiments:
SpCas9 = SpCas9 (Streptococcus pyogenes serotype M1, UniProt Q99ZW2); assay: Cas9 nuclease activity in EGFP disruption assay (U2OS.eGFP.PEST cells); assay type: cell-based; parameters: host or cells: U2OS.eGFP-PEST; conditions: 10, 15, 20 μM, 24 h
Procedure: (§1) Cas9 Nuclease activity in EGFP disruption assay. Approximately 200,000 U2OS.eGFP-PEST cells were nucleofected with 400 ng of SpCas9 (Addgene Plasmid #43861) and 40 ng of sgRNA (pFYF1320 EGFP Site #1, Addgene Plasmid #47511) expressing plasmids along with a Td-tomato-encoding plasmid using the SE Cell Line 4D-Nucleofector™ X Kit (Lonza) according to the manufacturer's protocol. Approximately 20,000 transfected cells/well in 3 replicates were plated in a 96-well plate (Corning® 3904). Cells were allowed to grow in the indicated amount of compound or DMSO for 24 h post transfection. Cells were then fixed using 4% paraformaldehyde and imaged with the HCS NuclearMask™ Blue Stain (Life Technologies) as the nuclear counter-staining agent. Imaging was performed with an IXM 137204 ImageXpress Automated High Content Microscope (Molecular Devices) at 10× magnification under three excitation channels (blue, green and red) with 9 acquiring sites per well. Images were analyzed in the MetaXpress software and data were plotted using GraphPad Prism 6. The Z′-value was calculated following the formula: […]
Cas9 Nuclease activity in EGFP disruption assay. In some embodiments, a quantitative human cell-based reporter assay that enables rapid quantitation of targeted nuclease activities is used to characterize off-target cleavage of CRISPR protein-based RNA guided endonucleases. In this assay, the activities of nucleases targeted to a single integrated EGFP reporter gene can be quantified by assessing loss of fluorescence signal in human U2OS.EGFP cells caused by inactivating frameshift insertion/deletion (indel) mutations introduced by error prone non-homologous end-joining (NHEJ) repair of nuclease-induced double-stranded breaks (DSBs).
as §1, with “Approximately” for “Cas9 Nuclease activity in EGFP disruption assay. Approximately”

SpCas9:gRNA complex = target: T1, SpCas9:gRNA complex (Streptococcus pyogenes serotype M1, UniProt Q99ZW2); assay: Bio-Layer Interferometry (BLI) of biotinylated compound with SpCas9:gRNA complex; assay type: binding
T1 construct: His6 (N, cleaved yes); made in house; host or cells: E. coli BL21 Star (DE3)
Procedure: Compound-Cas9 interaction in BLI. The experiments were performed in a 96-well format with 180 μL reaction volume using biotinylated compound BRD7087-Biotin and streptavidin sensors. 1 μM of the biotinylated compound was loaded onto the sensors for 180 s in 20 mM Tris buffer of pH 7.4, 100 mM KCl, 5 mM MgCl2, 1 mM DTT, 0.01% Tween®. The compound loaded sensors were then allowed to associate with the different concentration of SpCas9:gRNA complex (1-0.15 μM) for 300 s followed by dissociation in the reaction buffer. Reference sensor was loaded with compound and allowed to associate and dissociate in the reaction buffer alone. The response curves were fitted with a 2:1 stoichiometric model and a global fit steady-state analysis were performed using manufacturer inbuilt protocol. The experiment was performed in three replicates.
The competitive experiments were performed using Biotin-linker fragment. In this experiment, streptavidin sensors were pre-incubated with 10 μM of Biotin-linker before dipping into a solution of either 1 μM BRD7087-Biotin or reaction buffer alone. Sensors were then allowed to associate with different concentration of SpCas9:gRNA complex or buffer alone.
Compound-Cas9 interaction in BLL The experiments were performed in a 96-well format with 180 μL reaction volume using biotinylated compound BRD7087-Biotin and streptavidin sensors. […]

Chain of SpCas9 (Q99ZW2 whole entry): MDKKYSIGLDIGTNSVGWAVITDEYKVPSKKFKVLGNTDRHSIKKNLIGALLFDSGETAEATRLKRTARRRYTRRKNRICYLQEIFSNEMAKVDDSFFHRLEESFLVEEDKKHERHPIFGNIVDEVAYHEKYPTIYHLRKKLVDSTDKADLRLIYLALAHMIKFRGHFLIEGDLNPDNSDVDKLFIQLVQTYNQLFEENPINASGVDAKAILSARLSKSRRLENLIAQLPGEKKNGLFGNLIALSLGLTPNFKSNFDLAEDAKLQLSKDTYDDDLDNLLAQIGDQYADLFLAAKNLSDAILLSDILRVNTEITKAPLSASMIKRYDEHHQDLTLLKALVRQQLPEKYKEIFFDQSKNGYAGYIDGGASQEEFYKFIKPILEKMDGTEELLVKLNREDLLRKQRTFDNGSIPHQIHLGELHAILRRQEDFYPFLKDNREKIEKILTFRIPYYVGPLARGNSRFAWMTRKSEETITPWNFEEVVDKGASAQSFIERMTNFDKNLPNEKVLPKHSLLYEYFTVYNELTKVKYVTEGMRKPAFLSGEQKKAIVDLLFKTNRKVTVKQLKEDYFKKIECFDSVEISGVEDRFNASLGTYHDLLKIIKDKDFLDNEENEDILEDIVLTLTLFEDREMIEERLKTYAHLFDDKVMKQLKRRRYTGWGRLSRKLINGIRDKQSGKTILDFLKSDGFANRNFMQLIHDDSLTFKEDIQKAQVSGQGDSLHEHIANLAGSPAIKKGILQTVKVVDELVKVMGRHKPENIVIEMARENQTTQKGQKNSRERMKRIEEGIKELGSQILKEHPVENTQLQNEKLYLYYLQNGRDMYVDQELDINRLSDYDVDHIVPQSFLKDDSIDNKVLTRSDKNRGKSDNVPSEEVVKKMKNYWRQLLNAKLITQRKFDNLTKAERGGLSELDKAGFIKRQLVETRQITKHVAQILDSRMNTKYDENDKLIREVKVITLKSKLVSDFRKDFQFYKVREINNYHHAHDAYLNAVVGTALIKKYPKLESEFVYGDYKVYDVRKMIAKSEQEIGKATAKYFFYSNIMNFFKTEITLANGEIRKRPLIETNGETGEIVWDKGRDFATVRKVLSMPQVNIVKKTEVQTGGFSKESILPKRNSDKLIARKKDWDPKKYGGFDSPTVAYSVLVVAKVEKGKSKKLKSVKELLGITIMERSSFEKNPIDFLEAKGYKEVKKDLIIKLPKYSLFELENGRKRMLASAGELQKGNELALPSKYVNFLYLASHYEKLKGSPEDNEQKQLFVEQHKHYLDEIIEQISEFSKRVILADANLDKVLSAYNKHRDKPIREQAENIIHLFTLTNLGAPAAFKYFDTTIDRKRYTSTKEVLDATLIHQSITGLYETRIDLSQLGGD
T1 sequence (Q99ZW2 whole entry, one chain of several): as the sequence (Q99ZW2 whole entry) above

Row | SMILES | potency of stereoisomers in EGFP-disruption assay compared with the parent (3aR,4S,9bR) compound (SpCas9) | Kd (SpCas9:gRNA complex; 1 μM BRD7087-Biotin on streptavidin sensors, SpCas9:gRNA 1-0.15 μM, read-out: dissociation constant (2:1 compound to Cas9 binding isotherm)) [nM] | BLI response signal in competitive experiment (SpCas9:gRNA complex; excess (10×) of biotin to compound loading)
1 | OC[C@H]1Nc2ccc(-c3cccc(F)c3)cc2[C@@H]2[C@H]1CCN2Cc1ccncc1 [BRD0750, ((3aS,4S,9bS)-8-(3-Fluorophenyl)-1-(pyridin-4-ylmethyl)-2,3,3a,4,5,9b-hexahydro-1H-pyrrolo[3,2-c]quinolin-4-yl)methanol] | less potent |  | 
2 | OC[C@@H]1Nc2ccc(-c3cccc(F)c3)cc2[C@H]2[C@@H]1CCN2Cc1ccncc1 [BRD2161, ((3aR,4R,9bR)-8-(3-Fluorophenyl)-1-(pyridin-4-ylmethyl)-2,3,3a,4,5,9b-hexahydro-1H-pyrrolo[3,2-c]quinolin-4-yl)methanol] | less potent |  | 
3 | OC[C@@H]1Nc2ccc(-c3cccc(F)c3)cc2[C@@H]2[C@H]1CCN2Cc1ccncc1 [BRD5039, ((3aS,4R,9bS)-8-(3-Fluorophenyl)-1-(pyridin-4-ylmethyl)-2,3,3a,4,5,9b-hexahydro-1H-pyrrolo[3,2-c]quinolin-4-yl)methanol] | equipotent as BRD7087 |  | 
4 | O=C(CCCC[C@@H]1SC[C@@H]2NC(=O)N[C@@H]21)NCCOCCOCCOCCC(=O)Nc1cccc(-c2ccc3c(c2)[C@H]2[C@H](CCN2Cc2ccncc2)[C@@H](CO)N3)c1 [biotin-conjugate of BRD7087, N-(2-(2-(2-(3-((3-((3aR,4S,9bR)-4-(Hydroxymethyl)-1-(pyridin-4-ylmethyl)-2,3,3a,4,5,9b-hexahydro-1H-pyrrolo[3,2-c]quinolin-8-yl)phenyl)amino)-3-oxopropoxy)ethoxy)ethoxy)ethyl)-5-((3aS,4S,6aR)-2-oxohexahydro-1H-thieno[3,4-d]imidazol-4-yl)pentanamide] |  | ~160 | no substantial response signal
